Laboratory results as given in article PMC5329948, “Caspase vinyl sulfone small molecule inhibitors prevent axonal degeneration in human neurons and reverse cognitive impairment in Caspase-6-overexpressing mice” (Molecular Neurodegeneration, 2017).

Target: T1, Casp6 in Casp6-transfected HCT116 cells (Homo sapiens, UniProt P55212)
T1 construct: The mammalian constructs encoding human Casp6p20p10 in the pCep4β vector; expressed in transfected cells; host or cells: HCT116 human colon carcinoma cells
T1 sequence (P55212 24-179): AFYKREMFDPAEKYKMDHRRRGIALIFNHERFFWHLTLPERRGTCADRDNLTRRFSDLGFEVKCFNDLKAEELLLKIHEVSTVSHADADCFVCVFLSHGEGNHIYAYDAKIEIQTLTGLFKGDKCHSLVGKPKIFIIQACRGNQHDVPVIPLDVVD
T1 sequence (P55212 194-293): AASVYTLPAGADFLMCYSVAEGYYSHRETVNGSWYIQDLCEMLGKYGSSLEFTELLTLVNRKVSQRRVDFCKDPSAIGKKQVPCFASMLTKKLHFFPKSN
Test: Casp6 VEIDase activity in extracts of Casp6p20p10-transfected HCT116 cells treated with inhibitor
Format: cell-based
Settings: for Casp6 activity rise within 15 min of inhibitor removal / activity at 100 µM: 100 μM for 2 h, mean ± SEM; for Casp6 activity rise within 15 min of inhibitor removal: then fresh media 15 min; for decrease of Casp6 VEIDase activity within 15 min of treatment / decrease of Casp6 activity: 100 μM, Casp6-transfected HCT116; for decrease of Casp6 activity: 2 h; for activity at 100 µM: HCT-116, then fresh media 2 h, % of initial activity, read-out: Casp6 activity recovered 2 h after inhibitor removal; for IC50: cells treated for 2 h, read-out: IC50 on Casp6 activity in pCep4β-Casp6p20p10-transfected HCT116 cells
Description: HCT116: Human colon carcinoma (HCT116) cells (ATCC, Manassas, VA, USA) were cultured in McCoy’s 5A modified media (Thermo Fisher Scientific, Waltham, MA, USA) supplemented with 10% fetal bovine serum (Thermo Fisher Scientific, Waltham, MA, USA) and transfected with 1 μg of pCep4βCasp6p20p10 mixed with 8 μg of polyethyleneimine (Polysciences Inc., Warrington, PA, USA). Protein expression was allowed for 24 h before treating with vehicle (PBS), 100 μM NWL-117, or 100 μM NWL-154 for 2 h. For NWL inhibitor kinetic experiments, 100 μM of NWL-117 or NWL-154 was added at 120, 90, 60, 30, 15, or 0 min before harvest. […] For recovery time course experiments, after the initial treatment with 100 μM of NWL-117 or −154 for 2 h, the media was replaced with fresh media for 120, 90, 60, 30, 15, or 0 min before harvest. Primary Human CNS neurons: Cortical tissues were obtained from the Birth Defects Research Laboratory (BDRL, University of Washington, Seattle, USA) in accordance with NIH ethical guidelines approved by McGill University’s institutional review board and primary neurons cultured as previously described. Primary human neurons were seeded on poly-L-lysine-coated (5 μg/mL) 6-well plates or glass coverslips coated with poly-L-lysine and laminin (5 μg/mL) (Sigma-Aldrich, Oakville, ON, CA) at a density of 3x10^6 cells/mL. Primary human neurons were pre-treated with 0.1 μM epoxomicin (Enzo LifeSciences, Farmingdale, NY, USA) and 100 μM NWL-117, 100 μM NWL-154, or vehicle (PBS) for 2 h, and serum-deprived for 2 h in the presence of epoxomicin and vehicle (PBS), 100 μM NWL-117, or 100 μM NWL-154 before harvesting or measuring caspase activity with FLICA, as described below.
Recombinant or extracted cellular Casp6 activity: Casp6 activity was assessed by in vitro fluorogenic assays using Ac-Val-Glu-Ile-Asp-(7-Amino-4-trifluoromethylcouramin) (Ac-VEID-AFC: Enzo LifeSciences, NY, USA) as the Casp6 substrate. The activity was measured in Stennicke’s buffer (SB) (20 mM piperazine-N, N-bis (2-ethanesulfonic acid) (PIPES: BioShop Canada Inc, Burlington, Ontario, CA) pH 7.2, 30 mM NaCl, 1 mM ethylenediaminetetraacetic acid (EDTA), 0.1% 3-[(3-cholamidopropyl)-dimethylammonio]-2-hydroxy-1-propanesulfonic acid (CHAPS), 10% sucrose). The reaction mix consisted of either 20 nM RCasp6 or 20–30 μg cellular protein extracts, SB, 10 mM DTT, 10 μM VEID-AFC substrate and deionized water. The activity was measured in a black clear bottom 96-well plate (Costar, Corning, NY, USA) at 50 μL/well in triplicate at 37 °C in the Synergy H4 plate reader (BioTek) at excitation 380 nm and emission 505 nm every two minutes for 100 min. Fluorescence units were converted to the moles of AFC released based on a standard curve of 0–625 picomoles of free AFC. Cleavage rates were calculated from the linear phase of the assay. The activity is considered on a percentage scale where no inhibitor present is equated to 100% activity of the enzyme. Cellular Casp6 activity assay by FLICA: Active Casp6 was labeled within primary human neurons using the fluorescent inhibitor of Casp6 (FLICA) (FAM-VEID-fmk, ImmunoChemistry, Bloomington, MN, USA) following the manufacturer’s protocol. Briefly, FLICA reagent and Hoechst 33342 were added to a black clear bottom 96-well plate containing 100,000 of the treated-primary human neurons for 2 h at 37 °C in 5% CO2. The cells were rinsed twice with wash buffer and fresh media was added to the cells. The fluorescence of FAM-VEID-fmk was measured at 490 nm excitation and 520 nm emission with bandwidth reduced to 8 nm in the Synergy H4 plate reader (BioTek). The Hoechst signal was measured by excitation at 360 nm and emission at 485 nm.
The half-maximal inhibitory concentrations (IC50) for NWL inhibitors (Patent publication # WO/2009/140765, WO/2010/133000, and WO/2012/140500) was determined by incubating 0 to 20 μM NWL-117 and NWL-154 with 20 nM of active site-titrated Casp6 in SB at room temperature for 5 minutes. […]

| Structure (SMILES) | Casp6 activity rise within 15 min of inhibitor removal | decrease of Casp6 VEIDase activity within 15 min of treatment | decrease of Casp6 activity | activity at 100 µM | IC50 |
| --- | --- | --- | --- | --- | --- |
| CCC(C)[C@H](NC(=O)[C@H](CCC(=O)O)NC(=O)[C@@H](NC(=O)OCc1ccccc1)C(C)C)C(=O)N[C@H](/C=C(\Cl)S(C)(=O)=O)CC(=O)O (stereo partly shown) [NWL-154] | 21% | 95% | 96% | 30% | 3.63 µM |
| CCC(C)[C@H](NC(=O)[C@H](CCC(=O)O)NC(=O)[C@@H](NC(=O)OCc1ccccc1)C(C)C)C(=O)N[C@H](/C=C/S(C)(=O)=O)CC(=O)O (stereo partly shown) [NWL-117] | 43% | 88% | 80% | 85% | 4.82 µM |
